Experiments:
SHP2cat [1] = biological target: T1, SHP2cat (Homo sapiens, UniProt Q06124); assay: Mass spectrometry test for inhibitor:protein adducts; conditions: SHP2cat 5 μM, inhibitor 100 μM, 1-60 min
T1 construct: the SHP2 catalytic domain (SHP2cat; residues 248–527); made in house
T1 sequence (Q06124 248-527): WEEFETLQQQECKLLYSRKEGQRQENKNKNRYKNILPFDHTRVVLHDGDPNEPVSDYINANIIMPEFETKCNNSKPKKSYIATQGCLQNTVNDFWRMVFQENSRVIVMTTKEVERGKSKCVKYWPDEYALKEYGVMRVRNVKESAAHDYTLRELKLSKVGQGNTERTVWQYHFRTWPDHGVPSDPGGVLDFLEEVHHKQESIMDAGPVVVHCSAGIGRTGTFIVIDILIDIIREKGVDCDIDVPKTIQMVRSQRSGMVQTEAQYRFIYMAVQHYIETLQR
Protocol: PTPs contain a highly nucleophilic cysteine that is essential for catalytic activity but is susceptible to oxidation and covalent modifications, which abrogate its nucleophilic function and phosphatase activity ([26]). Because the methylenebenzothiophenone moiety of our inhibitors could potentially act as a Michael acceptor and thus covalently bind to the catalytic cysteine, we tested whether the observed inhibition of SHP2 was dependent on the preincubation time of inhibitor and enzyme. An irreversible covalent inhibitor may show time-dependent inhibition, with increased potency at longer incubation times. Conversely, the potency of a noncovalent inhibitor is expected to be insensitive to the time it is incubated with the enzyme. To test for time-dependent inhibition, SBI-2130 at ten different concentrations was preincubated with SHP2-E76K for 1, 5, 10, 20, or 60 min, before the DiFMUP substrate was added to the reaction mixture and initial rates were recorded (Fig. 3C). […] In addition, we used mass spectrometry to test whether inhibitor:protein adducts are being formed. Specifically, we incubated SHP2cat (5 μM) with SBI-4668 (100 μM) in assay buffer for various times (1, 5, 20, and 60 min) before trypsin proteolysis and subsequent mass spectrometry analysis. […] Finally, we performed a jump-dilution experiment to test for irreversible inhibition of SHP2. […]

SHP2cat [2] = biological target: T1, SHP2cat; assay: Protein thermal shift (PTS) assay; type: binding; conditions: dose response
From the text: We confirmed specific and dose-dependent binding of inhibitors to SHP2 by PTS, which monitors the thermal stability of a target protein in vitro ([40]). […] In addition, we confirmed the inhibitory activity of several furanylbenzamide inhibitors, including the top two compounds SBI-2130 and SBI-4668, in SHP2cat inhibition assays using the alternative substrate 3-O-methylfluorescein phosphate (OMFP), which features a peak fluorescence emission that is red-shifted by ∼75 nm compared with DiFMUP. The Km value of OMFP for SHP2cat was determined to be 50 μM. An OMFP fluorescence intensity–based assay was used to perform inhibitor dose–response experiments and determine IC50 values.
Differential scanning fluorimetry (also known as protein thermal shift) measurements of SHP2cat were performed using optimized methods and conditions in accordance with those previously described ([36], [41], [49]). SBI-4668 was spotted at different concentrations into MicroAmp 384-well real-time PCR plates (catalog no.: 4483285; Applied Biosystems) using an Echo 555 Liquid Handler. […] Plates were analyzed using a ViiA 7 Real-Time PCR instrument (Applied Biosystems) and a 12 min temperature gradient with a temperature increase of 0.075 °C/s. The melting temperature and thermal profiles were determined as described previously using Protein Thermal Shift Software, version 1.3 (Applied Biosystems) ([36], [49]).

MDA-MB-468 TNBC cells = assay: TNBC cell viability (CellTiter-Glo), MDA-MB-468; type: cell-based; conditions: Homo sapiens, MDA-MB-468; 72 h per text; 5 days per legend and method
Protocol: Inhibition of SHP2 has been reported to inhibit the growth of cancer cells including Kasumi-1 acute myeloid leukemia (AML) and KYSE-520 esophageal cancer cells ([30]). […] Thus, we treated two TNBC cell lines, BT-549 and MDA-MB-468, with SBI-4668 or the SHP2 allosteric inhibitor SHP099 at various concentrations and determined cell viability after 72 h, compared with the vehicle control (Fig. 4C). […] Next, we performed an 11-day colony formation assay with TNBC cells treated with SBI-4668 or SHP099 at 5, 10, or 20 μM (Fig. 4D).
Triple-negative breast cancer cell viability was assessed using the ATP-depletion assay CellTiter-Glo. Briefly, 2500 cells in 25 μl media (RPMI + 10% FBS + 1× penicillin–streptomycin [Omega Scientific]) were seeded per well of a 384-well tissue culture–treated plate (Greiner). About 25 nl of 1000× test compound were added using a Labcyte Echo acoustic dispenser, and the cells were incubated for 5 days before addition of 10 μl of CellTiter-Glo reagent as described by the manufacturer. Luminescence was detected on a BioTek Synergy 2 microplate reader, and the values normalized to those of vehicle (DMSO)-treated controls before being plotted using GraphPad Prism.

Structure (SMILES): O=C(Nc1ccccc1)c1cc(-c2ccc(/C=C3\Sc4ccccc4C3=O)o2)ccc1O [SBI-4668, (Z)-2-Hydroxy-5-(5-((3-oxobenzo[b]thiophen-2(3H)-ylidene)methyl)furan-2-yl)-N-phenylbenzamide]
- inhibitor:protein adduct formation (mass spectrometry) (SHP2cat [1]): no adduct formation
- change of SHP2cat melting temperature (Tm) vs DMSO (SHP2cat [2]): dose-dependently increased the melting temperature
- IC50 (MDA-MB-468 TNBC cells): 2500 nM
